Values of other authors as cited in patent US20240423961A1, “1H-1,2,3-TRIAZOLE-4-CARBOXYLIC ACIDS FOR TREATMENT OF HYPEROXALURIA AND KIDNEY STONES” (CANTERO THERAPEUTICS, INC., priority 2021, published 2024).
Where “and” joins values, the source holds several entries; their conditions need not be identical. Equal values may be shown once. Read-outs that look alike come from different tables or passages of the source.

Tested on: glycolate oxidase (GO)
Settings: cited from earlier work

lumasiran
measured peak plasma glycolate relative to baseline levels (single subcutaneous dose 0.3 mg/kg): ~1.6 fold
measured peak plasma glycolate relative to baseline levels (single subcutaneous dose 1.0 mg/kg): ~2.5 fold
measured peak plasma glycolate relative to baseline levels (single subcutaneous dose 3.0 mg/kg, 3 mg/kg): ~3.1 fold and ~3 fold
measured peak plasma glycolate relative to baseline levels (single subcutaneous dose 6.0 mg/kg): ~7.3 fold
